Test results: PMC7230820, “Anti-Inflammatory Effects of Fucoxanthinol in LPS-Induced RAW264.7 Cells through the NAAA-PEA Pathway” (Marine Drugs, 2020)

What was measured:
[1] = biological target: T1, N-acylethanolamine acid amidase (NAAA) (Homo sapiens, UniProt Q02083); experiment: recombinant enzyme activity assay, heptaenyl ethanolamide substrate, pH […]; format: biochemical
T1 sequence (Q02083 29-125): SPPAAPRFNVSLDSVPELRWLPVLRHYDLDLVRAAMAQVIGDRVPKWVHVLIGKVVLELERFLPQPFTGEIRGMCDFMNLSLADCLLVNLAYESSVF
T1 sequence (Q02083 126-359): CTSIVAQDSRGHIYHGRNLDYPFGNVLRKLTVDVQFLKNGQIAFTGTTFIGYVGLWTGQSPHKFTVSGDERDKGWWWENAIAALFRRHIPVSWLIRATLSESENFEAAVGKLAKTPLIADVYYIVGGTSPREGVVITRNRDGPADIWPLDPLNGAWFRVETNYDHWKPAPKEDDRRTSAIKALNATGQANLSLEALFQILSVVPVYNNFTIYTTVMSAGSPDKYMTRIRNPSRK

[2] = biological target: T2, fatty acid amide hydrolase (FAAH) (Homo sapiens, UniProt O00519); experiment: recombinant enzyme activity assay, anandamide substrate, pH […]; format: biochemical
T2 sequence (O00519 1-579): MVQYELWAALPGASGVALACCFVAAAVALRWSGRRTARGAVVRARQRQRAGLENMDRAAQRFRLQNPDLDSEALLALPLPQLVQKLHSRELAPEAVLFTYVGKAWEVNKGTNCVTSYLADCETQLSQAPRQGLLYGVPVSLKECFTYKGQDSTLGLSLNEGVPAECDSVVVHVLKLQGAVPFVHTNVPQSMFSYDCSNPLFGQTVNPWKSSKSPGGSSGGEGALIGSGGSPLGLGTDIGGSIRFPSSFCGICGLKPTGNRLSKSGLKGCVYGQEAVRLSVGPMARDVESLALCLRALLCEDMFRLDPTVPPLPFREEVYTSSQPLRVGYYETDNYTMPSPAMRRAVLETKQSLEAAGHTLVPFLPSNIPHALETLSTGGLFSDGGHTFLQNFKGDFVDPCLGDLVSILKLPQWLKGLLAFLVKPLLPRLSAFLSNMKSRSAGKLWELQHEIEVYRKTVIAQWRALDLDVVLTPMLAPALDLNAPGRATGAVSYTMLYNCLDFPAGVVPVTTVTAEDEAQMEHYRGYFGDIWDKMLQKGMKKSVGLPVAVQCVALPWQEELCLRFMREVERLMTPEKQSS

`CC(=O)O[C@H]1CC(C)(C)C(=C=C/C(C)=C/C=C/C(C)=C/C=C/C=C(C)/C=C/C=C(\C)C(=O)C[C@@]23O[C@]2(C)C[C@@H](O)CC3(C)C)[C@](C)(O)C1` [FX, Fucoxanthin] showed an IC50 [1] of 31.4 ± 1.06 µM.
`C\C(C=C=C1C(C)(C)C[C@H](O)C[C@@]1(C)O)=C/C=C/C(C)=C/C=C/C=C(C)/C=C/C=C(\C)C(=O)C[C@@]12O[C@]1(C)C[C@@H](O)CC2(C)C` [FXOH, Fucoxanthinol] gave an IC50 [1] of 12.8 ± 1.12 µM and an IC50 [2] of 42.4 ± 1.11 µM.
